According to PubChem BioAssay AID1259407 (Chemical Carcinogenesis Research Information System (CCRIS), 2018):
Active and inactive are the calls of the source. How the calls were made is not given here.

Tested on: CCRIS mutagenicity, Ames/micronucleus/aberration tests
Assay: CCRIS mutagenicity studies
[1] = Test System: AMES SALMONELLA TYPHIMURIUM, Strain/Indicator: TA98, Metabolic Activation: NONE, Method: STANDARD PLATE
[2] = Test System: AMES SALMONELLA TYPHIMURIUM, Strain/Indicator: TA98, Metabolic Activation: RAT, LIVER, S-9, AROCLOR 1254, Method: STANDARD PLATE
[3] = Test System: AMES SALMONELLA TYPHIMURIUM, Strain/Indicator: TA100, Metabolic Activation: NONE, Method: STANDARD PLATE
[4] = Test System: AMES SALMONELLA TYPHIMURIUM, Strain/Indicator: TA100, Metabolic Activation: RAT, LIVER, S-9, AROCLOR 1254, Method: STANDARD PLATE
[5] = Test System: AMES SALMONELLA TYPHIMURIUM, Strain/Indicator: TA1535, Metabolic Activation: NONE, Method: STANDARD PLATE
[6] = Test System: AMES SALMONELLA TYPHIMURIUM, Strain/Indicator: TA1535, Metabolic Activation: RAT, LIVER, S-9, AROCLOR 1254, Method: STANDARD PLATE
[7] = Test System: AMES SALMONELLA TYPHIMURIUM, Strain/Indicator: TA100, Metabolic Activation: NONE, Method: PREINCUBATION

With `C=C(C)C(=O)OCC(C)(C)C` the mutagenic call [1] was “inactive; negative”, the mutagenic call [2] was “inactive; negative” and the mutagenic call (Test System: AMES SALMONELLA TYPHIMURIUM, Strain/Indicator: TA98, Metabolic Activation: RAT, LIVER, S-9, SODIUM PHENOBARBITAL, Method: STANDARD PLATE) was “inactive; negative”. The mutagenic call [3] was “inactive; negative”, the mutagenic call [4] was “inactive; negative” and the mutagenic call (Test System: AMES SALMONELLA TYPHIMURIUM, Strain/Indicator: TA100, Metabolic Activation: RAT, LIVER, S-9, SODIUM PHENOBARBITAL, Method: STANDARD PLATE) was “inactive; negative”. For the same compound, the mutagenic call [5] was “inactive; negative”, the mutagenic call [6] was “inactive; negative” and the mutagenic call (Test System: AMES SALMONELLA TYPHIMURIUM, Strain/Indicator: TA1535, Metabolic Activation: RAT, LIVER, S-9, SODIUM PHENOBARBITAL, Method: STANDARD PLATE) was “inactive; negative”. For the same compound, the mutagenic call (Test System: AMES SALMONELLA TYPHIMURIUM, Strain/Indicator: TA1537, Metabolic Activation: NONE, Method: STANDARD PLATE) was “inactive; negative”, the mutagenic call (Test System: AMES SALMONELLA TYPHIMURIUM, Strain/Indicator: TA1537, Metabolic Activation: RAT, LIVER, S-9, AROCLOR 1254, Method: STANDARD PLATE) was “inactive; negative” and the mutagenic call (Test System: AMES SALMONELLA TYPHIMURIUM, Strain/Indicator: TA1537, Metabolic Activation: RAT, LIVER, S-9, SODIUM PHENOBARBITAL, Method: STANDARD PLATE) was “inactive; negative”. The mutagenic call (Test System: AMES SALMONELLA TYPHIMURIUM, Strain/Indicator: TA1538, Metabolic Activation: NONE, Method: STANDARD PLATE) was “inactive; negative”, the mutagenic call (Test System: AMES SALMONELLA TYPHIMURIUM, Strain/Indicator: TA1538, Metabolic Activation: RAT, LIVER, S-9, AROCLOR 1254, Method: STANDARD PLATE) was “inactive; negative” and the mutagenic call (Test System: AMES SALMONELLA TYPHIMURIUM, Strain/Indicator: TA1538, Metabolic Activation: RAT, LIVER, S-9, SODIUM PHENOBARBITAL, Method: STANDARD PLATE) was “inactive; negative”.
With `O=C1c2ccccc2C(=O)N1SC(Cl)(Cl)Cl` the mutagenic call [1] was “inactive; negative”, the mutagenic call [7] was “active; positive” and the mutagenic call [4] was “active; positive”. For the same compound, the mutagenic call (Test System: AMES SALMONELLA TYPHIMURIUM, Strain/Indicator: TA100, Metabolic Activation: RAT, LIVER, S-9, Method: STANDARD PLATE) was “active; positive”, the mutagenic call (Test System: AMES SALMONELLA TYPHIMURIUM, Strain/Indicator: TA100, Metabolic Activation: S-9 MIX, Method: STANDARD PLATE) was “active; positive” and the mutagenic call (Test System: AMES SALMONELLA TYPHIMURIUM, Strain/Indicator: TA102, Metabolic Activation: NONE, Method: STANDARD PLATE) was “inactive; negative”. For the same compound, the mutagenic call (Test System: AMES SALMONELLA TYPHIMURIUM, Strain/Indicator: TA104, Metabolic Activation: NONE, Method: STANDARD PLATE) was “active; positive”, the mutagenic call (Test System: AMES SALMONELLA TYPHIMURIUM, Strain/Indicator: TA104, Metabolic Activation: RAT, LIVER, S-9, PHENOBARBITAL, Method: STANDARD PLATE) was “active; positive” and the mutagenic call [5] was “active; positive”. For the same compound, the mutagenic call [6] was “active; positive”, the mutagenic call (Test System: E. COLI, Strain/Indicator: WP2, Metabolic Activation: NONE, Method: STANDARD PLATE) was “active; positive” and the mutagenic call (Test System: E. COLI, Strain/Indicator: WP2, Metabolic Activation: RAT, LIVER, S-9, Method: STANDARD PLATE) was “active; positive”. The mutagenic call (Test System: E. COLI, Strain/Indicator: WP2 UVRA, Metabolic Activation: NONE, Method: STANDARD PLATE) was “active; positive” and the mutagenic call (Test System: E. COLI, Strain/Indicator: WP2 UVRA, Metabolic Activation: RAT, LIVER, S-9, AROCLOR 1254, Method: STANDARD PLATE) was “active; positive”.
For `COc1ccc(N=O)cc1`, the mutagenic call [1] was “active; positive”, the mutagenic call [2] was “active; positive” and the mutagenic call [3] was “active; positive”. For the same compound, the mutagenic call [4] was “active; positive”.
For `CC(C)CCO`, the mutagenic call (Test System: CHINESE HAMSTER V-79, Strain/Indicator: V-79 (HPRT)/6-THIOGUANINE, Metabolic Activation: NONE, Method: STANDARD PLATE) was “inactive; negative”, the mutagenic call (Test System: CHINESE HAMSTER V-79, Strain/Indicator: V-79 (HPRT)/6-THIOGUANINE, Metabolic Activation: RAT LIVER S-9, Method: STANDARD PLATE) was “inactive; negative” and the mutagenic call (Test System: CHINESE HAMSTER V-79 CELLS, Strain/Indicator: V-79 CELLS (HPRT)/6-THIOGUANINE, Metabolic Activation: NONE, Method: PREINCUBATION) was “inactive; negative”. For the same compound, the mutagenic call (Test System: CHINESE HAMSTER V-79 CELLS, Strain/Indicator: V-79 CELLS (HPRT)/6-THIOGUANINE, Metabolic Activation: S-9 (3%), Method: PREINCUBATION) was “inactive; negative”.
With `O=[N+]([O-])c1cc([N+](=O)[O-])c2c3ccccc3c3cccc4ccc1c2c43` the mutagenic call [1] was “active; positive”.
With `CCc1cccc(NC(=O)c2csc([N+](=O)[O-])c2)c1` the mutagenic call [1] was “active; positive” and the mutagenic call [3] was “active; positive”.
For `CC1(C)S[C@@H]2[C@H](NC(=O)[C@H](N)c3ccccc3)C(=O)N2[C@H]1C(=O)O`, the mutagenic call (End Point: IN VITRO CHROMOSOMAL ABERRATIONS, Test System: CHO CELLS, Metabolic Activation: NONE) was “inactive; negative; testing limited by solubility of chemical”, the mutagenic call (End Point: IN VITRO CHROMOSOMAL ABERRATIONS, Test System: CHO CELLS, Metabolic Activation: RAT, LIVER, S-9, AROCLOR 1254) was “inactive; negative; testing limited by solubility of chemical” and the mutagenic call (Test System: AMES SALMONELLA TYPHIMURIUM, Strain/Indicator: TA98, Metabolic Activation: HAMSTER, LIVER, S-9, AROCLOR 1254, Method: PREINCUBATION) was “inactive; negative”. For the same compound, the mutagenic call (Test System: AMES SALMONELLA TYPHIMURIUM, Strain/Indicator: TA98, Metabolic Activation: NONE, Method: PREINCUBATION) was “inactive; negative”, the mutagenic call (Test System: AMES SALMONELLA TYPHIMURIUM, Strain/Indicator: TA98, Metabolic Activation: RAT, LIVER, S-9, AROCLOR 1254, Method: PREINCUBATION) was “inactive; negative” and the mutagenic call (Test System: AMES SALMONELLA TYPHIMURIUM, Strain/Indicator: TA100, Metabolic Activation: HAMSTER, LIVER, S-9, AROCLOR 1254, Method: PREINCUBATION) was “inactive; negative”. The mutagenic call [7] was “inactive; negative”, the mutagenic call (Test System: AMES SALMONELLA TYPHIMURIUM, Strain/Indicator: TA100, Metabolic Activation: RAT, LIVER, S-9, AROCLOR 1254, Method: PREINCUBATION) was “inactive; negative” and the mutagenic call (Test System: AMES SALMONELLA TYPHIMURIUM, Strain/Indicator: TA1535, Metabolic Activation: HAMSTER, LIVER, S-9, AROCLOR 1254, Method: PREINCUBATION) was “inactive; negative”. The mutagenic call (Test System: AMES SALMONELLA TYPHIMURIUM, Strain/Indicator: TA1535, Metabolic Activation: NONE, Method: PREINCUBATION) was “inactive; negative”, the mutagenic call (Test System: AMES SALMONELLA TYPHIMURIUM, Strain/Indicator: TA1535, Metabolic Activation: RAT, LIVER, S-9, AROCLOR 1254, Method: PREINCUBATION) was “inactive; negative” and the mutagenic call (Test System: AMES SALMONELLA TYPHIMURIUM, Strain/Indicator: TA1537, Metabolic Activation: HAMSTER, LIVER, S-9, AROCLOR 1254, Method: PREINCUBATION) was “inactive; negative”. For the same compound, the mutagenic call (Test System: AMES SALMONELLA TYPHIMURIUM, Strain/Indicator: TA1537, Metabolic Activation: NONE, Method: PREINCUBATION) was “inactive; negative”, the mutagenic call (Test System: AMES SALMONELLA TYPHIMURIUM, Strain/Indicator: TA1537, Metabolic Activation: RAT, LIVER, S-9, AROCLOR 1254, Method: PREINCUBATION) was “inactive; negative” and the mutagenic call (Test System: MOUSE LYMPHOMA, Strain/Indicator: L5178Y (TK+/TK-), Metabolic Activation: NONE, Method: SUSPENSION/PLATE) was “inactive; negative”. The mutagenic call (Test System: MOUSE LYMPHOMA, Strain/Indicator: L5178Y (TK+/TK-), Metabolic Activation: RAT, LIVER, S-9, AROCLOR 1254, Method: SUSPENSION/PLATE) was “inactive; negative”.
